The target in the test is T1, Forkhead box protein M1 [235-327] (Human, UniProt Q08050).
T1 construct: 235-327
T1 sequence (Q08050 whole entry): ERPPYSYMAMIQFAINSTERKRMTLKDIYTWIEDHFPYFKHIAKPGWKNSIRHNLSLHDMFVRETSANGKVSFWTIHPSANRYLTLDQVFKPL
The test is described as follows: Fluorescence-based Affinity Assay. Here is the method: The fluorescence emission spectra of tryptophan residues were used to monitor the changes in local chemical environment of protein upon ligand binding [Zhu et al., Bioorg. Chem., 68:259-265; Tyler et al., Biochemistry, 49:951-957]. The protein concentration was kept at a constant. Changes in fluorescence were measured upon titration of tested compound to protein solution. Fluorescence was measured by a PE fluorescence spectrophotometer.

For orientation: Kd means the concentration at which binding is half-saturated. Low readings indicate higher affinity, high ones lower affinity. The compound `COc1ccccc1C(=O)C(CCC(=O)O)c1ccccc1OC` (stereo unspecified) [CID 2748371] returned a Kd of 26 µM. For `CCC[C@H]1C(=O)N[C@]2(C(=O)O[C@@H]2[C@H]2C=CCCC2)[C@@]1(C)O` [CID 50943806], binding was characterised by a dissociation constant (Kd) of 230 µM.

The compound `CC1=C(C(=O)OC(C)C)C(c2ccc([N+](=O)[O-])cc2)NC(=S)N1` (stereo unspecified) [CID 2748293] displayed a Kd of 17 µM. The result for `Cc1cccc2c(/C=C/C(=O)O)cc(C(C)C)c(O)c12` [CID 53708511] reads 56 µM; that for `O=c1[nH]nc(-c2ccccc2)c(=S)n1-c1ccc(F)c(Cl)c1` [CID 2751638], 120 µM. The value for `N=c1sc(C(=O)c2cccs2)nn1-c1ccccc1` [CID 2753793] was 3.8 µM.

(Values after BindingDB's records for doi:10.1016/j.bioorg.2016.11.003 (Linyi People's Hospital, 2017).)
